These results are taken from PubChem BioAssay AID1320 (NMMLSC, 2008).

Structures are written as SMILES. Calls of active or inactive are those of the source. How the calls were made is not given here.

A word on the EC50: it is the midpoint of the concentration-response curve.

One assay deals with Bcl-2-related protein A1 (Homo sapiens) (UniProt Q16548). The assay is described as follows: Bfl-1/Bim complex disruptors – biochemical, multiplexed, bead-based flow cytometry, dose response (AID 1320). On percent span (inhibition): test concentration not given here. The conditions noted are these: Bim peptide-Bfl-1 binding, fluorescence.
Bcl-2-related protein A1 (Homo sapiens), sequence (Q16548 whole entry, looked up): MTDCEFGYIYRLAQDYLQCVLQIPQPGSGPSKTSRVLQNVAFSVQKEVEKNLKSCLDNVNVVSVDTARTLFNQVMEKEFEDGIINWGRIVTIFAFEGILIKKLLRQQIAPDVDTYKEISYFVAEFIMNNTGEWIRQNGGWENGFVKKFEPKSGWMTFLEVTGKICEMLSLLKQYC
`Cc1cccc(N2C(S)=C(C#N)C(=O)NC2c2cccs2)c1` (configuration not stated): the EC50 result is “inactive”. On the same count and under the same terms, the result for `O=C(C1=NN(c2ccccc2)C2C(=O)N(c3ccccc3)C(=O)C12)c1ccccc1` (configuration not stated) reads 1360 nM; that for `Cc1c(NC2=C(Cl)C(=O)N(c3ccccc3)C2=O)c(=O)n(-c2ccccc2)n1C`, “inactive”.

The assay is the same for the next values; noted with them: Bim peptide-Bfl-1 binding, fluorescence, hits give high values.
As for `CN(C)/C=C/C(=O)c1ccc(C(F)(F)F)cc1F`, the “percent span (inhibition)” value is “inactive”.

Take `Cc1nc(NC(=O)CC(C)C)sc1-c1csc(Nc2ccc(Cl)cc2)n1`: the “percent span (inhibition)” value was “inactive”. Turning to `CN(C)c1ccc(/C=C2/SC(=O)N(CCN=C3NS(=O)(=O)c4ccccc43)C2=O)cc1`, the “percent span (inhibition)” value is “inactive”. Turning to `Cc1csc(SCCn2c(N3CCN(c4ccccc4)CC3)nc3c2c(=O)[nH]c(=O)n3C)n1`, the “percent span (inhibition)” value is “inactive”. Take `COc1cc(/C=C2/NC(=O)N(Cc3ccccc3F)C2=O)ccc1O`: the “percent span (inhibition)” value is “inactive”. Same read-out and setting: the result for `CC(C)C(=O)N1CCN(c2ccc([N+](=O)[O-])cc2Cl)CC1` reads “inactive”. For `Cc1ccc(-n2[nH]c(C)c(/C=N/Nc3ccc([N+](=O)[O-])cc3[N+](=O)[O-])c2=O)cc1C`, the “percent span (inhibition)” value is “inactive”. On to `COc1ccc(C2C(C#N)=C(C)NC3=C2S(=O)(=O)c2ccccc23)cc1` (configuration not stated), for which the “percent span (inhibition)” value is “inactive”. As for `Fc1ccc(C2=Nn3c(Cc4ccccc4F)nnc3SC2)cc1`, the “percent span (inhibition)” value is “inactive”.

As for `c1ccc2c(N3CCOCC3)nc(N3CCOCC3)nc2c1`, the “percent span (inhibition)” value was “inactive”.

Consider `NCC(c1ccccc1)c1c[nH]c2ccccc12` (configuration not stated), for which the “percent span (inhibition)” value was “inactive”. Same read-out and setting: the result for `Cc1ccc(-c2cc(C(=O)Nc3ccccn3)c3ccccc3n2)o1` reads “inactive”; that for `COc1cc(/C=C2/NC(=O)N(Cc3ccccc3F)C2=O)cc(OC)c1O`, “inactive”; that for `O=C(NCCc1ccccc1)c1ccc2nc(-c3ccco3)c(-c3ccco3)nc2c1`, “inactive”.

For the compound `O=C1NC(=O)C2(Cc3c(nc4ccccn4c3=O)N3CCCCCC32)C(=O)N1Cc1ccccc1` (configuration not stated), the “percent span (inhibition)” value is “inactive”. With `OC(COc1ccc2cc(Br)ccc2c1)CN1CCOCC1` (configuration not stated), the “percent span (inhibition)” value is “inactive”.

As for `COc1cc(NC(=O)c2ccc3c(c2)OCO3)ccc1NC(=O)c1ccco1`, the “percent span (inhibition)” value is “inactive”. Take `COc1ccc(N2CCN(C(CNS(=O)(=O)c3ccc4c(c3)OCCO4)c3ccco3)CC2)cc1` (configuration not stated): the “percent span (inhibition)” value is “inactive”. The same measure, in the same setting: the result for `Cc1ccc(NC(=S)N2CCn3cccc3C2c2cccnc2)cc1` (configuration not stated) reads “inactive”; that for `O=C(Cc1ccccc1)N/N=C/c1cccn1-c1ccc([N+](=O)[O-])cc1`, “inactive”; that for `COc1cccc(C(=O)/C=C/Nc2ccc(S(=O)(=O)Nc3onc(C)c3C)cc2)c1`, “inactive”. Consider `CN(CC(=O)O/N=C(\N)c1ccc([N+](=O)[O-])cc1)S(=O)(=O)c1ccccc1`, for which the “percent span (inhibition)” value is “inactive”. The same measure, in the same setting: the result for `NC(=O)CSc1nnc(Cn2cnc3ccccc32)o1` reads “inactive”; that for `CCOC(=O)c1[nH]cnc1C(=O)NC(C)C`, “inactive”; that for `O=C(NCC1CCCO1)c1ccc2c(=O)n(-c3ccc(F)cc3)c(=S)[nH]c2c1` (configuration not stated), “inactive”. In the case of `CN(C(=O)NC1CCCCC1)c1ccccc1`, the “percent span (inhibition)” value was “inactive”. In the case of `Cc1nc2ccccc2n1CSc1ccccc1`, the “percent span (inhibition)” value was “inactive”. As for `Cc1cc(N/C(=N/S(=O)(=O)c2cc(F)ccc2F)c2ccccc2)n(-c2ccccc2)n1`, the “percent span (inhibition)” value was “inactive”.

In the case of `Cc1cccc(-n2c(O)c(/C=N/N3CCOCC3)c(=O)[nH]c2=S)c1`, the “percent span (inhibition)” value is “inactive”.

For `O=C(NCc1ccco1)C1CC2CCC1C2` (configuration not stated), the “percent span (inhibition)” value is “inactive”. Take `COc1ccc(NC(=O)COc2ncnc3ccccc23)cc1S(=O)(=O)N1CCOCC1`: the “percent span (inhibition)” value is “inactive”.

Regarding `CN1CCS/C1=C/C=C1/SC(=S)N(Cc2ccccc2)C1=O`, the “percent span (inhibition)” value is “inactive”. On the same count and under the same terms, the result for `O=C(/C=C\c1ccc(-c2ccccc2)o1)c1ccccc1` reads “inactive”; that for `CCOC(=O)C1=C(CP(=O)(c2ccccc2)c2ccccc2)NC(=O)NC1c1ccc(OC)cc1` (configuration not stated), “inactive”; that for `COc1ccc(/C=C2\SC(=O)NC2=S)cc1OC`, “inactive”. The same measure, in the same setting: the result for `N/C(=N\N=C/c1ccc(Br)cc1)N/N=C\c1ccc(Br)cc1` reads “inactive”. For `COC(=O)Cc1cc(=O)[nH]c(Nc2nc3ccccc3o2)n1`, the “percent span (inhibition)” value was “inactive”. On the same count and under the same terms, the result for `Cc1cc(-c2csc(N)n2)c(C)n1C` reads “inactive”; that for `O=C(O)CCN1C(=O)/C(=C\c2ccc(-c3nc4ccccc4s3)o2)SC1=S`, “inactive”.

For the compound `CN(Cc1cccs1)C(=O)CCc1c[nH]c2ccccc12`, the “percent span (inhibition)” value is “inactive”.

Regarding `CN(Cc1ccccc1)c1nc2c(c(=O)[nH]c(=O)n2C)n1C`, the “percent span (inhibition)” value was “inactive”. For `CCOC(=O)c1snc(-c2ccc(F)cc2)c1N`, the “percent span (inhibition)” value was “inactive”. With `C#CCOCCOCCOCCNc1nc(N2CCN(C(=O)[C@H](CCCCN)n3cc(CCCC)nn3)CC2)nc(N2CCN(C(=O)[C@H](Cc3ccc(O)cc3)n3cc(CCO)nn3)CC2)n1`, the “percent span (inhibition)” value was “inactive”. The same measure, in the same setting: the result for `Cc1nn(-c2ccc(Cl)c(Cl)c2)c(C)c1C(=O)O` reads “inactive”; that for `O=C(COc1ccccc1Br)NCc1ccccn1`, “inactive”; that for `Cc1ccc(C(=O)N/N=C2/NC(=O)CC(C(=O)Nc3ccccc3)S2)cc1` (configuration not stated), “inactive”. Regarding `Cc1sc(NC(=O)Cn2cnnn2)nc1-c1ccc(Cl)cc1`, the “percent span (inhibition)” value is “inactive”. For `Cc1cccc(-n2c(-c3ccncc3)n[nH]c2=S)c1`, the “percent span (inhibition)” value is “inactive”. For `O=C(Cn1cncc1-c1ccc([N+](=O)[O-])cc1)Nc1ccccc1F`, the “percent span (inhibition)” value is “inactive”. Still for that read-out and setting: the result for `COC(=O)c1ccc(/C=N/NC(=O)CC(=O)NCc2cccnc2)cc1` reads “inactive”; that for `COc1ccccc1NC(=O)CSc1ncn(-c2ccccc2)n1`, “inactive”. Consider `Cc1ccc2nc3c(cc(C(N)=S)c(=N)n3CCCOC(C)C)c(=O)n2c1`, for which the “percent span (inhibition)” value is “inactive”. Same read-out and setting: the result for `COCCNC(=O)CN1CCC(NC(=O)Nc2ccccc2)CC1` reads “inactive”; that for `CCOC(=O)c1nc(Nc2ccc(Nc3ccccc3)cc2)c2ccccc2n1`, “inactive”; that for `CC(NC(=O)Nc1ccccn1)N1C(=O)C2C3C=CC(C3)C2C1=O` (configuration not stated), “inactive”. In the case of `CN1/C(=C\C(=O)Nc2ccc(Cl)cc2)C(C)(C)c2ccccc21`, the “percent span (inhibition)” value is “inactive”. Turning to `CNc1ccc(Br)cc(C(=O)/C=C/c2ccc(OC)cc2OC)c1=O`, the “percent span (inhibition)” value is “inactive”.

As to `S=C(Nc1ccccc1)N1CCn2cccc2C1c1cccnc1` (configuration not stated), the “percent span (inhibition)” value is “inactive”. Consider `COc1ccc(CC(=O)Nc2ccc3nc(C)sc3c2)cc1OC`, for which the “percent span (inhibition)” value was “inactive”.

Regarding `Cc1cccc(NC(=S)N2CCn3cccc3C2c2cccnc2)c1` (configuration not stated), the “percent span (inhibition)” value was “inactive”. `Cc1c(Cc2ccccc2)sc(N)c1C(N)=O`: the “percent span (inhibition)” value was “inactive”. Same read-out and setting: the result for `O=C(O)CC/C(=C\c1cc([N+](=O)[O-])ccc1Cl)c1nc2ccccc2s1` reads “inactive”; that for `CC(C)(C)C1CCC(=NNC(=O)c2cc3c(s2)CCCC3)CC1` (configuration not stated), “inactive”; that for `Fc1ccccc1/C=C1\CCCC2=C1NC(=S)NC2c1ccccc1F` (configuration not stated), “inactive”. For `CCN(CC)c1ccc(-c2nn3c(-c4cccnc4)nnc3s2)cc1`, the “percent span (inhibition)” value is “inactive”. `CCOC(=O)CSc1nnc(-c2cccc(Cl)c2)n1CC`: the “percent span (inhibition)” value was “inactive”. Same read-out and setting: the result for `Cc1[nH]c2ccccc2c1C(=O)COC(=O)c1c(-c2c(F)cccc2Cl)noc1C` reads “inactive”; that for `O=C(O)c1ccccc1NSc1ccccc1[N+](=O)[O-]`, “inactive”.

In the case of `COP(=O)(CC(=O)O)c1ccccc1` (configuration not stated), the “percent span (inhibition)” value was “inactive”. As for `COc1ccc(S(=O)(=O)NCCOc2cccc3cccnc23)cc1OC`, the “percent span (inhibition)” value was “inactive”. On to `O=C(c1cnccn1)N1CCN(c2ccccc2F)CC1`, for which the “percent span (inhibition)” value is “inactive”. On the same count and under the same terms, the result for `COc1c(F)c(F)c(C(=O)Nc2ccccc2N2CCN(C(=O)C(C)C)CC2)c(F)c1F` reads “inactive”; that for `CC(C)CCN1CCN(Cc2cccc3cccnc23)CC1CCO` (configuration not stated), “inactive”. Consider `CCSc1ncc(Cl)c(C(=O)Nc2sc3c(c2C(=O)NCc2cccnc2)CCCC3)n1`, for which the “percent span (inhibition)” value is “inactive”. The same measure, in the same setting: the result for `CCC(CC)C(=O)Nc1cccc(SC)c1` reads “inactive”; that for `Cc1ccc(NC2=C(Cl)C(=O)c3ccccc3C2=O)cc1`, “inactive”; that for `Cc1ccc(NC(=O)C/C(N)=N/OC(=O)c2ccccc2)cc1`, “inactive”. On the same count and under the same terms, the result for `CCOCCCNc1nc(=S)[nH]c2cc(OC)c(OC)cc12` reads “inactive”; that for `Cc1cc(-c2csc(N)n2)c(C)n1CCc1ccccc1`, “inactive”; that for `COc1c(C)cc(Br)cc1C(=O)Nc1ccc(S(N)(=O)=O)cc1`, “inactive”. The same measure, in the same setting: the result for `COc1ccc(C2=Nn3c(nnc3-c3ccco3)SC2)cc1OC` reads “inactive”; that for `COc1ccc(NC(=O)c2ccc(CN3CCN(c4ccccc4)CC3)cc2)cc1`, “inactive”.

Take `Cc1cc(NC(=O)CSc2nnc(-c3cccnc3)n2Cc2ccccc2)no1`: the “percent span (inhibition)” value was “inactive”. Same read-out and setting: the result for `CC(CCc1ccccc1)NC(=O)C1CCN(S(=O)(=O)N2CCCCC2)CC1` (configuration not stated) reads “inactive”.
